This note sets out measurements from US8962608B2, “Cycloalkylnitrile pyrazole carboxamides as janus kinase inhibitors” (Merck Sharp & Dohme Corp., priority 2011, dated 2015).

By IC50 is commonly meant the concentration needed to halve the response being measured.
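Further: biochemical assay with HTRF read-out.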

The target of this test is JAK1 (recombinant purified GST-tagged catalytic domain) (Homo sapiens (Human), UniProt P23458). Nature of the test: biochemical.
Chain of JAK1 (recombinant purified GST-tagged catalytic domain) (P23458 875-1153): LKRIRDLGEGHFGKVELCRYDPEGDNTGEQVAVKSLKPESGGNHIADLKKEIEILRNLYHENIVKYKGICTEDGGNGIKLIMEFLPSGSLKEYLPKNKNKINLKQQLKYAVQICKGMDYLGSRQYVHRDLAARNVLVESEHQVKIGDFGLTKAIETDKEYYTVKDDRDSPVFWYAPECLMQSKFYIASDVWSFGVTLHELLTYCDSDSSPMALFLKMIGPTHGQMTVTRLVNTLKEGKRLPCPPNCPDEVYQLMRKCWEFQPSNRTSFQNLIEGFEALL
With `CN(C)[C@H]1CC[C@H](n2cc(C(N)=O)c(Nc3ccc(OC(F)F)cc3)n2)[C@@H](C#N)C1` (single isomer, unassigned) [Example 28-104, 1-[(1S,2S,4S or 1R,2R,4R)-2-cyano-4-(dimethylamino)cyclohexyl]-3-{[4-(difluoromethoxy)phenyl]amino}-1H-pyrazole-4-carboxamide], the IC50 was 0.4 nM.

With `N#C[C@H]1C[C@@H](N2CC(F)C2)CC[C@@H]1n1cc(C(N)=O)c(Nc2ccc(C(F)(F)F)cc2)n1` (single isomer, unassigned) [Example 28-105, 1-[(1S,2S,4S or 1R,2R,4R)-2-cyano-4-(3-fluoroazetidin-1-yl)cyclohexyl]-3-{[4-(trifluoromethyl)phenyl]amino}-1H-pyrazole-4-carboxamide], the IC50 came to 3 nM.

Regarding `N#C[C@H]1C[C@@H](N2CCC2)CC[C@@H]1n1cc(C(N)=O)c(Nc2ccc(OC(F)F)cc2)n1` (single isomer, unassigned) [Example 28-108, 1-[(1S,2S,4S or 1R,2R,4R)-4-azetidin-1-yl-2-cyanocyclohexyl]-3-{[4-(difluoromethoxy)phenyl]amino}-1H-pyrazole-4-carboxamide], the IC50 turned out to be 2 nM.

Consider `N#C[C@H]1C[C@@H](NCC(F)(F)F)CC[C@@H]1n1cc(C(N)=O)c(Nc2ccnc(F)c2)n1` (single isomer, unassigned) [Example 28-111, 1-{(1S,2S,4S or 1R,2R,4R)-2-cyano-4-[(2,2,2-trifluoroethyl)amino]cyclohexyl}-3-[(2-fluoropyridin-4-yl)amino]-1H-pyrazole-4-carboxamide], for which the IC50 came out at 1 nM.

Consider `N#Cc1ccc(Nc2nn([C@H]3CC[C@H](NCC(F)F)C[C@@H]3C#N)cc2C(N)=O)cc1` (single isomer, unassigned) [Example 28-116, 1-{(1S,2S,4S or 1R,2R,4R)-2-cyano-4-[(2,2-difluoroethyl)amino]cyclohexyl}-3-[(4-cyanophenyl)amino]-1H-pyrazole-4-carboxamide], for which the IC50 was 1 nM.

For `CN(C)[C@H]1CC[C@H](n2cc(C(N)=O)c(Nc3ccc(Cl)cc3)n2)[C@@H](C#N)C1` (single isomer, unassigned) [Example 28-117, 3-[(4-chlorophenyl)amino]-1-[(1S,2S,4S or 1R,2R,4R)-2-cyano-4-(dimethylamino)cyclohexyl]-1H-pyrazole-4-carboxamide], the IC50 was 0.55 nM.

Regarding `N#C[C@H]1C[C@@H](N2CCC2)CC[C@@H]1n1cc(C(N)=O)c(Nc2ccc(OC(F)F)cc2)n1` (single isomer, unassigned) [Example 28-118, 1-[(1S,2S,4S or 1R,2R,4R)-4-azetidin-1-yl-2-cyanocyclohexyl]-3-{[4-(difluoromethoxy)phenyl]amino}-1H-pyrazole-4-carboxamide], the IC50 came out at 0.5 nM.

Turning to `CN(C)[C@@H]1CC[C@H](n2cc(C(N)=O)c(Nc3ccc(Cl)cc3)n2)[C@@H](C#N)C1` (single isomer, unassigned) [Example 28-125, 3-[(4-chlorophenyl)amino]-1-[(1S,2S,4R or 1R,2R,4S)-2-cyano-4-(dimethylamino)cyclohexyl]-1H-pyrazole-4-carboxamide], the IC50 was determined as 2 nM.

`CN(C)[C@H]1CC[C@H](n2cc(C(N)=O)c(Nc3ccc(F)cc3)n2)[C@@H](C#N)C1` (single isomer, unassigned) [Example 28-129, 1-[(1S,2S,4S or 1R,2R,4R)-2-cyano-4-(dimethylamino)cyclohexyl]-3-[(4-fluorophenyl)amino]-1H-pyrazole-4-carboxamide]: the IC50 turned out to be 20 nM.

`CC1(C)CN([C@@H]2CC[C@H](n3cc(C(N)=O)c(Nc4ccnc(F)c4)n3)[C@@H](C#N)C2)C1` (single isomer, unassigned) [Example 28-142, 1-[(1S,2S,4R or 1R,2R,4S)-2-cyano-4-(3,3-dimethylazetidin-1-yl)cyclohexyl]-3-[(2-fluoropyridin-4-yl)amino]-1H-pyrazole-4-carboxamide]: the IC50 was found to be 2 nM.

Turning to `N#C[C@H]1C[C@H](N2CC(O)C2)CC[C@@H]1n1cc(C(N)=O)c(Nc2ccc(S(=O)(=O)C(F)(F)F)cc2)n1` (single isomer, unassigned) [Example 28-150, 1-[(1S,2S,4R or 1R,2R,4S)-2-cyano-4-(3-hydroxyazetidin-1-yl)cyclohexyl]-3-({4-[(trifluoro-methyl)sulfonyl]phenyl}amino)-1H-pyrazole-4-carboxamide], the IC50 turned out to be 0.3 nM.

With `N#C[C@H]1C[C@@H](N2CC(O)C2)CC[C@@H]1n1cc(C(N)=O)c(Nc2ccc(S(=O)(=O)C(F)(F)F)cc2)n1` (single isomer, unassigned) [Example 28-151, 1-[(1S,2S,4S or 1R,2R,4R)-2-cyano-4-(3-hydroxyazetidin-1-yl)cyclohexyl]-3-({4-[(trifluoro-methyl)sulfonyl]phenyl}amino)-1H-pyrazole-4-carboxamide], the IC50 is 0.13 nM.

Take `N#C[C@H]1CC(NC2COC2)CC[C@@H]1n1cc(C(N)=O)c(Nc2ccc(S(=O)(=O)C(F)(F)F)cc2)n1` (single isomer, unassigned) [Example 28-155, 1-[(1S,2S or 1R,2R)-2-cyano-4-(oxetan-3-ylamino)cyclohexyl]-3-({4-[(trifluoromethyl)sulfonyl]phen-yl}amino)-1H-pyrazole-4-carboxamide]: the IC50 worked out at 0.22 nM.

With `CN(CCC(F)(F)F)[C@@H]1CC[C@H](n2cc(C(N)=O)c(Nc3ccc(S(=O)(=O)C(F)(F)F)cc3)n2)[C@@H](C#N)C1` (single isomer, unassigned) [Example 28-170, 1-{(1S,2S,4R or 1R,2R,4S)-2-cyano-4-[methyl(3,3,3-trifluoropropyl)amino]cyclohexyl}-3-({4-[(trifluoromethyl)sulfonyl]phen-yl]amino)-1H-pyrazole-4-carboxamide], the IC50 came out at 11 nM.

Turning to `CN(CCC(F)(F)F)[C@H]1CC[C@H](n2cc(C(N)=O)c(Nc3ccc(S(=O)(=O)C(F)(F)F)cc3)n2)[C@@H](C#N)C1` (single isomer, unassigned) [Example 28-171, 1-{(1S,2S,4S or 1R,2R,4R)-2-cyano-4-[methyl(3,3,3-tri-fluoropropyl)amino]cyclohexyl}-3-({4-[(trifluoromethyl)sulfonyl]phen-yl}amino)-1H-pyrazole-4-carboxamide], the 50% inhibitory concentration (IC50) was 2 nM.

As to `CC(C)N[C@H]1CC[C@H](n2cc(C(N)=O)c(Nc3ccc(S(=O)(=O)C(F)(F)F)cc3)n2)[C@@H](C#N)C1` (single isomer, unassigned) [Example 28-174, 1-{(1S,2S,4S or 1R,2R,4R)-2-cyano-4-[(1-methylethyl)amino]cyclohexy}-3-({4-[(trifluoro-methyl)sulfonyl]phenyl}amino)-1H-pyrazole-4-carboxamide], the IC50 amounted to 0.15 nM.

On to `CC(C)N[C@@H]1CC[C@H](n2cc(C(N)=O)c(Nc3ccc(S(=O)(=O)C(F)(F)F)cc3)n2)[C@@H](C#N)C1` (single isomer, unassigned) [Example 28-175, 1-{(1S,2S,4R or 1R,2R,4S)-2-cyano-4-[(1-methylethyl)amino]cyclohexyl}-3-({4-[(trifluoro-methyl)sulfonyl]phenyl}amino)-1H-pyrazole-4-carboxamide], for which the IC50 worked out at 0.35 nM.

With `N#C[C@H]1C[C@@H](N2CC(O)(C(F)(F)F)C2)CC[C@@H]1n1cc(C(N)=O)c(Nc2ccc(C(F)(F)F)cc2)n1` (single isomer, unassigned) [Example 28-200, 1-{(1S,2S,4S or 1R,2R,4R)-2-cyano-4-[3-hydroxy-3-(trifluoromethyl)azetidin-1-yl]cyclohexyl}-3-{[4-(trifluoromethyl)phenyl]amino}-nvrazole-4-carboxamide], the IC50 came to 1 nM.

In the case of `N#C[C@H]1C[C@H](N2CC(O)(C(F)(F)F)C2)CC[C@@H]1n1cc(C(N)=O)c(Nc2ccc(C(F)(F)F)cc2)n1` (single isomer, unassigned) [Example 28-201, 1-{(1S,2S,4R or 1R,2R,4S)-2-cyano-4-[3-hydroxy-3-(trifluoromethyl)azetidin-1-yl]cyclohexyl}-3-{[4-(trifluoromethyl)phenyl]amino}-1H-pyrazole-4-carboxamide], the IC50 worked out at 2 nM.

For the molecule `CC1(N[C@@H]2CCC(n3cc(C(N)=O)c(Nc4ccc(Cl)cc4)n3)[C@@H](C#N)C2)CC1` (single isomer, unassigned) [Example 28-206, 3-[(4-chlorophenyl)amino]-1-{(1S,2S,4R or 1R,2R,4S)-2-cyano-4-[(1-methylcyclopropyl)amino]cyclo-hexyl}-1H-pyrazole-4-carboxamide], the IC50 amounted to 12 nM.

Consider `N#C[C@H]1C[C@@H](N2CC(O)(C(F)(F)F)C2)CCC1n1cc(C(N)=O)c(Nc2ccc(Cl)cc2)n1` (single isomer, unassigned) [Example 28-213, 3-[(4-chlorophenyl)amino]-1-{(1S,2S,4S or 1R,2R,4R)-2-cyano-4-[3-hydroxy-3-(trifluoromethyl)azetidin-1-yl]cyclohexyl}-1H-pyrazole-4-carboxamide], for which the IC50 turned out to be 1 nM.

On to `N#C[C@H]1C[C@@H](NC2CCOCC2)CCC1n1cc(C(N)=O)c(Nc2ccc(Cl)cc2)n1` (single isomer, unassigned) [Example 28-218, 3-[(4-chlorophenyl)amino]-1-[(1S,2S,4S or 1R,2R,4R)-2-cyano-4-(tetrahydro-2H-pyran-4-ylamino)cyclohexyl]-1H-pyrazole-4-carboxamide], for which the IC50 was determined as 4 nM.

`COCC(C)(C)N[C@H]1CCC(n2cc(C(N)=O)c(Nc3ccc(Cl)cc3)n2)[C@@H](C#N)C1` (single isomer, unassigned) [Example 28-222, 3-[(4-chlorophenyl)amino]-1-{(1S,2S,4S or 1R,2R,4R)-2-cyano-4-[(2-methoxy-1,1-dimethylethyl)amino]cyclo-hexyl}-1H-pyrazole-4-carboxamide]: the IC50 was 0.8 nM.

With `N#C[C@H]1C[C@@H](NCC(F)(F)F)CC[C@@H]1n1cc(C(N)=O)c(Nc2ccc(Cl)cc2)n1` (single isomer, unassigned) [Example 28-224, 3-[(4-chlorophenyl)amino]-1-{(1S,2S,4S or 1R,2R,4R)-2-cyano-4-[(2,2,2-trifluoroethyl)amino]cyclo-hexyl}-1H-pyrazole-4-carboxamide], the IC50 stood at 3 nM.
